Measured values: patent US6977263B2, “Chemical compounds” (Aventis Pharmaceuticals Inc., priority 2000, dated 2005)
Structures can show the parent of a compound that is named as a salt.

Target: T1, recombinant human β tryptase (Homo sapiens, UniProt Q15661)
T1 construct: made in house; host or cells: yeast cells
Test: Tryptase chromogenic enzyme assay (S2366 substrate), Ki determination
Format: biochemical
Settings: room temperature, 0.5 mM S2366 substrate (2×Km), read at 405 nm; Ki=IC50/(1+[Substrate]/Km)
Description: Tryptase inhibition activity is confirmed using either isolated human lung tryptase or recombinant human β tryptase expressed in yeast cells. Essentially equivalent results are obtained using isolated native enzyme or the expressed enzyme. The assay procedure employs a 96 well microplate (Costar 3590) using L-pyroglutamyl-L-prolyl-L-arginine-para-nitroanilide (S2366: Quadratech) as substrate (essentially as described by McEuen et. al. Biochem Pharm, 1996, 52, pages 331-340). Assays are performed at room temperature using 0.5 mM substrate (2×Km) and the microplate is read on a microplate reader (Beckman Biomek Plate reader) at 405 nm wavelength. It was determined using the procedure set forth herein.
Materials and Methods for Tryptase Primary Screen (Chromogenic Assay)
S2366 (Stock solutions of 2.5 mM).
Purified recombinant beta Tryptase Stocks of 310 ug/ml.
• Add 60 ul of diluted substrate (final concentration of 500 uM in assay buffer) to each well • Add compound in duplicates, final concentration of 20 uM, volume 20 ul • Add enzyme at a final concentration of 50 ng/ml in a volume of 20 ul • Total volume for each well is 100 ul • Agitate briefly to mix and incubate at room temp in the dark for 30 minutes • Read absorbencies at […]
Each plate has the following controls • Totals: 60 ul of substrate, 20 ul of buffer (with 0.2% final concentration of DMSO), 20 ul of enzyme • Non-specific: 60 ul of substrate, 40 ul of buffer (with 0.2% DMSO) • Totals: 60 ul of substrate, 20 ul of buffer (No DMSO), 20 ul of enzyme • Non-specific: 60 ul of substrate, 40 ul of buffer (No DMSO) Protocol (IC50 and Ki Determination)
The protocol is essentially the same as above except that the compound is added in duplicates at the following final concentrations: 0.01, 0.03, 0.1, 0.3, 1, 3, 10 uM (All dilutions carried out manually). For every assay, whether single point or IC50 determination, a standard compound is used to derive IC50 for comparison. From the IC 50 value, the Ki can be calculated using the following formula: Ki=IC50/(1+[Substrate]/Km).

T1 sequence (Q15661 31-275): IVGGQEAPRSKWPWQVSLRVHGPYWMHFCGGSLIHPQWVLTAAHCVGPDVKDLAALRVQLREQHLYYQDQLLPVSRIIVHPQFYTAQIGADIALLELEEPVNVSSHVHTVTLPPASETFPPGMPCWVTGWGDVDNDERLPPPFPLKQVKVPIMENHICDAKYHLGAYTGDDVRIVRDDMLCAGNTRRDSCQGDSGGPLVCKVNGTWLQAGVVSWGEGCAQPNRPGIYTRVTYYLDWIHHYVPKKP

In order of falling Ki:
1. NCc1cccc(C2CCN(C(=O)c3cccc(COc4ccccc4)c3)CC2)c1 [Example 15, 3-[1-(3-Phenoxymethyl-benzoyl)-piperidin-4-yl]-benzylamine hydrochloride]  1070 nM
2. NCc1cccc(C2CCN(C(=O)c3cccc(C#Cc4ccc(F)cc4)c3)CC2)c1 [Example 83, 1-[4-(3-Aminomethyl-phenyl)-piperidin-1-yl]-1-[3-(4-fluoro-phenylethynyl)-phenyl]-methanone trifluoroacetate]  870 nM
3. NCc1cc(C2CCN(C(=O)c3cncc(CCc4ccccc4)c3)CC2)cs1 [Example 100, dihydrochloride]  490 nM
4. NCc1cccc(C2CCN(C(=O)c3ccc(CCc4ccccc4)cc3)CC2)c1 [Example 97, 1-[4-(3-Aminomethylphenyl)-piperidin-1-yl]-1-(4-phenylethyl-phenyl)-methanone hydrochloride]  450 nM
5. NCc1cccc(C2CCN(C(=O)c3ccc(Cl)cc3)CC2)c1 [Example 48, 1-[4-(3-Aminomethyl-phenyl)-piperidin-1-yl]-1-(4-chloro-phenyl)-methanone trifluoroacetate]  390 nM
6. NCc1cccc(C2CCN(C(=O)c3cccc(-c4nnc(-c5ccccc5Cl)o4)c3)CC2)c1 [Example 49, 1-[4-(3-Aminomethyl-phenyl)-piperidin-1-yl]-1-{3-[5-(2-chloro-phenyl)-[1,3,4]oxadiazol-2-yl]-phenyl}-methanone trifluoroacetate]  390 nM
7. NCc1cccc(C2CCN(C(=O)c3scc4c3CCCC4)CC2)c1 [Example 70, 1-[4-(3-Aminomethyl-phenyl)-piperidin-1-yl]-1-(4,5,6,7-tetrahydro-benzo[c]thiophen-1-yl)-methanone-trifluoroacetate]  290 nM
8. NCc1cccc(C2CCN(C(=O)c3cc4sc(Cl)cc4s3)CC2)c1 [Example 92, 1-[4-(3-Aminomethyl-phenyl)-piperidin-1-yl]-1-(5-chloro-thieno[3,2-b]thiophen-2-yl)-methanone trifluoroacetate]  190 nM
9. NCc1cccc(C2CCN(C(=O)c3cccc(-c4nnc(-c5ccccc5)o4)c3)CC2)c1 [Example 19, 3-{1-[3-(5-Phenyl-1,3,4-oxadiazol-2-yl)-phenylcarbonyl]-piperidin-4-yl}-benzylamine hydrochloride]  180 nM
10. NCc1cccc(C2CCN(C(=O)c3cccc(CCc4ccccc4O)c3)CC2)c1 [Example 98, 1-[4-(3-Aminomethyl-phenyl)-piperidin-1-yl]-1-{3-[2-(2-hydroxy-phenyl)-ethyl]-phenyl}-methanone hydrochloride]  180 nM
11. N#CC1(c2cccc(CN)c2)CCN(C(=O)c2cncc(CCc3ccccc3)c2)CC1 [Example 35, 4-(3-Aminomethyl-phenyl)-1-(5-phenethyl-pyridine-3-carbonyl)-piperidine-4-carbonitrile]  93 nM
12. Cc1ccc(CN)cc1C1CCN(C(=O)c2cncc(CCc3ccccc3)c2)CC1 [Example 18, 4-Methyl-3-[1-(5-phenylethyl-pyridine-3-carbonyl)-piperidin-4-yl]-benzylamine di-hydrochloride]  69 nM
13. NCc1cccc(C2CCN(C(=O)c3ccc(CCc4ccccc4)s3)CC2)c1 [Example 13, 3-[1-(5-Phenylethyl-thiophene-2-carbonyl)-piperidin-4-yl]-benzylamine hydrochloride]  50 nM
14. NCc1cccc(C2CCN(C(=O)c3ccc(Cl)c(Cl)c3)CC2)c1 [Example 36, [4-(3-Aminomethylphenyl)piperidin-1-yl]-(3,4-dichlorophenyl)methanone trifluoroacetate]  31 nM
